From patent US20170020909A1, “METHODS OF TREATING GLAUCOMA USING AMP-ACTIVATED PROTEIN KINASE (AMPK) ACTIVATORS” (Massachusetts Eye and Ear Infirmary, priority 2014, published 2017) come the findings set out here.

The test system of this assay is laminin. The experiment in a line: Immunoblot of laminin in conditioned media of human TM cells. In kind it is cell-based. As to conditions: 24 hours. The procedure: FIGS. 5A-E. AICAR suppresses ECM proteins in primary human TM cells under basal and TGF-β2 stimulatory conditions. (A) Representative immunoblots of ECM proteins from conditioned media (CM) of human TM cells treated for 24 hours with PBS vehicle or 0.5 mM AICAR and (B) integrated band intensities calculated from those immunoblots. (C) Representative immunoblots of ECM proteins from CM of human TM cells under stimulation with 2.5 ng/mL TGF-β2. Cells were pre-incubated for 1 hour with PBS or 0.5 mM AICAR prior to full 24-hour treatment. (D) Mean integrated band intensities. Data in panels B and D are expressed as mean±SEM (*p<0.05 vs. PBS vehicle by student t-test; n=5-7). (E) Representative 10% acrylamide gels stained with Coomassie Brilliant Blue as a loading control. […]
At the conclusion of each experiment for matricellular and ECM protein detection, conditioned media (CM) from TM cell cultures was harvested and centrifuged at 5000 rpm for 10 minutes at 4° C. The supernatant was then concentrated (Amicon Ultra-4 Filter Unit, 10 kDa; Millipore, Milford, Mass.), and protein content quantified using the DC Protein Assay kit adhering to manufacturer's protocols (Bio-Rad, Hercules, Calif.). […] Samples were then centrifuged at 14,000 rpm for 15 minutes at 4° C. and protein content quantified. […]
(In general: Immunoblotting shows a protein as a band on a membrane.)

Turning to `NC(=O)c1ncn([C@@H]2O[C@H](CO)[C@@H](O)[C@H]2O)c1N` [AICAR, 5-Aminoimidazole-4-carboxamide riboside], for the setting “0.5 mM AICAR vs PBS vehicle, basal”, the “decrease in laminin (mean integrated band intensity)” value was 64%. Further, the “decrease in laminin level” value (0.5 mM AICAR, under TGF-β2 stimulation with 2.5 ng/mL) was found to be 33%.
